Values of other authors in US8460687B1, “Peeling compositions” (Cosmoceutical Research Center, priority 2009, dated 2013).
Like-named read-outs stand apart in the source and are kept apart here.

pH of aqueous solution (0.66 g/l): 2.68 | pH of aqueous solution (66 g/l): 0.9
SMILES: O=P(O)(O)O[C@H]1[C@H](OP(=O)(O)O)[C@@H](OP(=O)(O)O)[C@H](OP(=O)(O)O)[C@@H](OP(=O)(O)O)[C@H]1OP(=O)(O)O [Phytic acid, inisitol hexakisphosphate]
